Measured values: paper PMC6409085, “Three odorant-binding proteins are involved in the behavioral response of Sogatella furcifera to rice plant volatiles” (PeerJ, 2019)
Several values for one entry are separate records, joined by “and”; a condition that tells them apart may be missing. Identical values can stand only once.

Key:
Assay in all cases: biochemical
Format in all cases: binding
SfurOBP11 = SfurOBP11 (Sogatella furcifera, UniProt V5T6E3)
Protocol: (§1) Thirty-six rice odorants ([He et al., 2014]; [Wang et al., 2017]) and 1-N-phenyl-naphthylamine (1-NPN) were purchased from Sigma-Aldrich (St Louis, MO, USA). These odorants and 1-NPN were dissolved in high-performance liquid chromatography (HPLC) purify grade methanol for 1.0 mM as work solution.
(§2) Fluorescence competitive binding assays were performed on Tecan Spark 10M (Tecan Group Ltd., Männedorf, Switzerland) with the F96 Black ELIAS Plate (Sangon) ([Khuhro et al., 2017]; [Liu et al., 2017]). The solutions were excited at 337 nm and emission spectra were recorded between 390 and 490 nm. First, to test the binding constants of 1-NPN to the SfurOBPs, a 2.0 µM solution of protein in 50 mM Tris-HCl (pH = 7.4) was titrated with 1 mM 1-NPN to achieve virous concentrations. Next, the competitive binding of each odorant was measured using the 1-NPN as fluorescent reporter and odorant as competitor. The concentrations of protein and 1-NPN were both 2.0 µM, the odorant added after protein and 1-NPN added into the well of ELIAS Plate for 2 min. The final concentrations of each competitor were 2, 4, 6, 8, 10, 12, 14, 16, 18 and 20 µM. After 2 min of odorant added, the fluorescence intensity was measured and recorded. The volume of mixed solution in each well was maintained at 250 µL. Each interaction was performed in triplicates.
(§3) GraphPad Prism 7.0 software (GraphPad Software, Inc., La Jolla, CA, USA) was used to calculated and generated the binding constants (K1−NPN) of 1-NPN to SfurOBPs and relative Scatchard plots ([Ban et al., 2003]; [Li et al., 2016]). Dissociation constant (Ki) of each odorant to SfurOBP was computed from the corresponding IC50 value (the half maximal inhibitory concentration), using the following equation: Ki=[IC50]/(1 + [1-NPN]/K1−NPN), where [1-NPN] is the free concentration of 1-NPN and K1−NPN is the dissociation constant of the complex protein/1-NPN.

SfurOBP2 = SfurOBP2 (Sogatella furcifera, UniProt V5T759)
Sequence of SfurOBP2 (V5T759 entry or part of it): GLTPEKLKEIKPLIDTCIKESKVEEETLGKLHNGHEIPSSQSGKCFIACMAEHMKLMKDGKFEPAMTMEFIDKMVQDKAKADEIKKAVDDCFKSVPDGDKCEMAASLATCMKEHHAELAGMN
Protocol: as §1, §2, §3

SfurOBP3 = SfurOBP3 (Sogatella furcifera, UniProt V5T818); conditions: OBP3, three replicate columns
Sequence of SfurOBP3 (V5T818 entry or part of it): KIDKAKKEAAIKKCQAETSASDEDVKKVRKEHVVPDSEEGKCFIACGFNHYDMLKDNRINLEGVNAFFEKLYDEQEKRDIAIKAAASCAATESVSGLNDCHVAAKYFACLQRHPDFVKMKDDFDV
Protocol: as §1, §2, §3

SfurOBP1 = SfurOBP1 (Sogatella furcifera, UniProt V5T8N5); conditions: OBP1, three replicate columns
Sequence of SfurOBP1 (V5T8N5 entry or part of it): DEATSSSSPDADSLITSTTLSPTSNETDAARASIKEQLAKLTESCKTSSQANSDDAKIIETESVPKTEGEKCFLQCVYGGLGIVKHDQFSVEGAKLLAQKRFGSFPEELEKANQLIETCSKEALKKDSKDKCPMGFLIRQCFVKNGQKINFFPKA
Protocol: as §1, §2, §3

Sequence of SfurOBP11 (V5T6E3 entry or part of it): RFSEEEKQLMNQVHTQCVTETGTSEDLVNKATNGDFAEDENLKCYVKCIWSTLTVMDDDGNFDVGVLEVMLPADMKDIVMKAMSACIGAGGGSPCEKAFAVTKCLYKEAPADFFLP

## CCCCCCCCCCCCCCCC(=O)OC [MH(methyl hexadecanoate)]
SfurOBP11; ligand concentration 2, replicate 1
  Fluorescence intensity, fluorescence competitive binding assay, OBP11: 29421
SfurOBP11; ligand concentration 2, replicate 2
  Fluorescence intensity, fluorescence competitive binding assay, OBP11: 25881
SfurOBP11; ligand concentration 2, replicate 3
  Fluorescence intensity, fluorescence competitive binding assay, OBP11: 28224
SfurOBP11; ligand concentration 4, replicate 1
  Fluorescence intensity, fluorescence competitive binding assay, OBP11: 30123
SfurOBP11; ligand concentration 4, replicate 2
  Fluorescence intensity, fluorescence competitive binding assay, OBP11: 33254
SfurOBP11; ligand concentration 4, replicate 3
  Fluorescence intensity, fluorescence competitive binding assay, OBP11: 33112
SfurOBP11; ligand concentration 6, replicate 1
  Fluorescence intensity, fluorescence competitive binding assay, OBP11: 36335
SfurOBP11; ligand concentration 6, replicate 2
  Fluorescence intensity, fluorescence competitive binding assay, OBP11: 36906
SfurOBP11; ligand concentration 6, replicate 3
  Fluorescence intensity, fluorescence competitive binding assay, OBP11: 37537
SfurOBP11; ligand concentration 8, replicate 1
  Fluorescence intensity, fluorescence competitive binding assay, OBP11: 38631
SfurOBP11; ligand concentration 8, replicate 2
  Fluorescence intensity, fluorescence competitive binding assay, OBP11: 37383
SfurOBP11; ligand concentration 8, replicate 3
  Fluorescence intensity, fluorescence competitive binding assay, OBP11: 37911
SfurOBP11; ligand concentration 10, replicate 1
  Fluorescence intensity, fluorescence competitive binding assay, OBP11: 41192
SfurOBP11; ligand concentration 10, replicate 2
  Fluorescence intensity, fluorescence competitive binding assay, OBP11: 43341
SfurOBP11; ligand concentration 10, replicate 3
  Fluorescence intensity, fluorescence competitive binding assay, OBP11: 42267
SfurOBP11; ligand concentration 12, replicate 1
  Fluorescence intensity, fluorescence competitive binding assay, OBP11: 42172
SfurOBP11; ligand concentration 12, replicate 2
  Fluorescence intensity, fluorescence competitive binding assay, OBP11: 43002
SfurOBP11; ligand concentration 12, replicate 3
  Fluorescence intensity, fluorescence competitive binding assay, OBP11: 44132
SfurOBP11; ligand concentration 14, replicate 1
  Fluorescence intensity, fluorescence competitive binding assay, OBP11: 50939
SfurOBP11; ligand concentration 14, replicate 2
  Fluorescence intensity, fluorescence competitive binding assay, OBP11: 48639
SfurOBP11; ligand concentration 14, replicate 3
  Fluorescence intensity, fluorescence competitive binding assay, OBP11: 49789
SfurOBP11; ligand concentration 16, replicate 1
  Fluorescence intensity, fluorescence competitive binding assay, OBP11: 53380
SfurOBP11; ligand concentration 16, replicate 2
  Fluorescence intensity, fluorescence competitive binding assay, OBP11: 53280
SfurOBP11; ligand concentration 16, replicate 3
  Fluorescence intensity, fluorescence competitive binding assay, OBP11: 53495
SfurOBP11; ligand concentration 18, replicate 1
  Fluorescence intensity, fluorescence competitive binding assay, OBP11: 69760
SfurOBP11; ligand concentration 18, replicate 2
  Fluorescence intensity, fluorescence competitive binding assay, OBP11: 71076
SfurOBP11; ligand concentration 18, replicate 3
  Fluorescence intensity, fluorescence competitive binding assay, OBP11: 64769
SfurOBP11; ligand concentration 20, replicate 1
  Fluorescence intensity, fluorescence competitive binding assay, OBP11: 67623
SfurOBP11; ligand concentration 20, replicate 2
  Fluorescence intensity, fluorescence competitive binding assay, OBP11: 62432
SfurOBP11; ligand concentration 20, replicate 3
  Fluorescence intensity, fluorescence competitive binding assay, OBP11: 62669
SfurOBP2; ligand concentration 2 (unit not given), replicate column 1 of 3
  Fluorescence competitive binding assay, OBP2 (raw fluorescence reading): 36028
SfurOBP2; ligand concentration 2 (unit not given), replicate column 2 of 3
  Fluorescence competitive binding assay, OBP2 (raw fluorescence reading): 29538
SfurOBP2; ligand concentration 2 (unit not given), replicate column 3 of 3
  Fluorescence competitive binding assay, OBP2 (raw fluorescence reading): 32173
SfurOBP2; ligand concentration 4 (unit not given), replicate column 1 of 3
  Fluorescence competitive binding assay, OBP2 (raw fluorescence reading): 32085
SfurOBP2; ligand concentration 4 (unit not given), replicate column 2 of 3
  Fluorescence competitive binding assay, OBP2 (raw fluorescence reading): 39967
SfurOBP2; ligand concentration 4 (unit not given), replicate column 3 of 3
  Fluorescence competitive binding assay, OBP2 (raw fluorescence reading): 36772
SfurOBP2; ligand concentration 6 (unit not given), replicate column 1 of 3
  Fluorescence competitive binding assay, OBP2 (raw fluorescence reading): 51385
SfurOBP2; ligand concentration 6 (unit not given), replicate column 2 of 3
  Fluorescence competitive binding assay, OBP2 (raw fluorescence reading): 38065
SfurOBP2; ligand concentration 6 (unit not given), replicate column 3 of 3
  Fluorescence competitive binding assay, OBP2 (raw fluorescence reading): 41844
SfurOBP2; ligand concentration 8 (unit not given), replicate column 1 of 3
  Fluorescence competitive binding assay, OBP2 (raw fluorescence reading): 39886
SfurOBP2; ligand concentration 8 (unit not given), replicate column 2 of 3
  Fluorescence competitive binding assay, OBP2 (raw fluorescence reading): 44063
SfurOBP2; ligand concentration 8 (unit not given), replicate column 3 of 3
  Fluorescence competitive binding assay, OBP2 (raw fluorescence reading): 42977
SfurOBP2; ligand concentration 10 (unit not given), replicate column 1 of 3
  Fluorescence competitive binding assay, OBP2 (raw fluorescence reading): 53038
SfurOBP2; ligand concentration 10 (unit not given), replicate column 2 of 3
  Fluorescence competitive binding assay, OBP2 (raw fluorescence reading): 51904
SfurOBP2; ligand concentration 10 (unit not given), replicate column 3 of 3
  Fluorescence competitive binding assay, OBP2 (raw fluorescence reading): 31312
SfurOBP2; ligand concentration 12 (unit not given), replicate column 1 of 3
  Fluorescence competitive binding assay, OBP2 (raw fluorescence reading): 66556
SfurOBP2; ligand concentration 12 (unit not given), replicate column 2 of 3
  Fluorescence competitive binding assay, OBP2 (raw fluorescence reading): 51896
SfurOBP2; ligand concentration 12 (unit not given), replicate column 3 of 3
  Fluorescence competitive binding assay, OBP2 (raw fluorescence reading): 78968
SfurOBP2; ligand concentration 14 (unit not given), replicate column 1 of 3
  Fluorescence competitive binding assay, OBP2 (raw fluorescence reading): 59847
SfurOBP2; ligand concentration 14 (unit not given), replicate column 2 of 3
  Fluorescence competitive binding assay, OBP2 (raw fluorescence reading): 56230
SfurOBP2; ligand concentration 14 (unit not given), replicate column 3 of 3
  Fluorescence competitive binding assay, OBP2 (raw fluorescence reading): 65733
SfurOBP2; ligand concentration 16 (unit not given), replicate column 1 of 3
  Fluorescence competitive binding assay, OBP2 (raw fluorescence reading): 57526
SfurOBP2; ligand concentration 16 (unit not given), replicate column 2 of 3
  Fluorescence competitive binding assay, OBP2 (raw fluorescence reading): 53371
SfurOBP2; ligand concentration 16 (unit not given), replicate column 3 of 3
  Fluorescence competitive binding assay, OBP2 (raw fluorescence reading): 59678
SfurOBP2; ligand concentration 18 (unit not given), replicate column 1 of 3
  Fluorescence competitive binding assay, OBP2 (raw fluorescence reading): 69952
SfurOBP2; ligand concentration 18 (unit not given), replicate column 2 of 3
  Fluorescence competitive binding assay, OBP2 (raw fluorescence reading): 81927
SfurOBP2; ligand concentration 18 (unit not given), replicate column 3 of 3
  Fluorescence competitive binding assay, OBP2 (raw fluorescence reading): 73816
SfurOBP2; ligand concentration 20 (unit not given), replicate column 1 of 3
  Fluorescence competitive binding assay, OBP2 (raw fluorescence reading): 72726
SfurOBP2; ligand concentration 20 (unit not given), replicate column 2 of 3
  Fluorescence competitive binding assay, OBP2 (raw fluorescence reading): 69859
SfurOBP2; ligand concentration 20 (unit not given), replicate column 3 of 3
  Fluorescence competitive binding assay, OBP2 (raw fluorescence reading): 85793
SfurOBP3; ligand concentration 2
  Fluorescence competitive binding assay, fluorescence intensity: 79169 and 74941 and 94761
SfurOBP3; ligand concentration 4
  Fluorescence competitive binding assay, fluorescence intensity: 75066 and 75962 and 116353
SfurOBP3; ligand concentration 6
  Fluorescence competitive binding assay, fluorescence intensity: 80726 and 113361 and 131059
SfurOBP3; ligand concentration 8
  Fluorescence competitive binding assay, fluorescence intensity: 127533 and 115294 and 124955
SfurOBP3; ligand concentration 10
  Fluorescence competitive binding assay, fluorescence intensity: 151439 and 140422 and 180514
SfurOBP3; ligand concentration 12
  Fluorescence competitive binding assay, fluorescence intensity: 128094 and 97542 and 122147
SfurOBP3; ligand concentration 14
  Fluorescence competitive binding assay, fluorescence intensity: 143468 and 130975 and 143763
SfurOBP3; ligand concentration 16
  Fluorescence competitive binding assay, fluorescence intensity: 147668 and 180253 and 155136
SfurOBP3; ligand concentration 18
  Fluorescence competitive binding assay, fluorescence intensity: 151347 and 96227 and 180613
SfurOBP3; ligand concentration 20
  Fluorescence competitive binding assay, fluorescence intensity: 179130 and 144685 and 179646
SfurOBP1; ligand concentration 2 (μM)
  Fluorescence competitive binding assay, fluorescence intensity: 12147 and 12451 and 12785
SfurOBP1; ligand concentration 4 (μM)
  Fluorescence competitive binding assay, fluorescence intensity: 16267 and 16004 and 15123
SfurOBP1; ligand concentration 6 (μM)
  Fluorescence competitive binding assay, fluorescence intensity: 22521 and 20565 and 17849
SfurOBP1; ligand concentration 8 (μM)
  Fluorescence competitive binding assay, fluorescence intensity: 45300 and 22408 and 22243
SfurOBP1; ligand concentration 10 (μM)
  Fluorescence competitive binding assay, fluorescence intensity: 28286 and 29968 and 28368
SfurOBP1; ligand concentration 12 (μM)
  Fluorescence competitive binding assay, fluorescence intensity: 32121 and 35150 and 30012
SfurOBP1; ligand concentration 14 (μM)
  Fluorescence competitive binding assay, fluorescence intensity: 38613 and 36070 and 36799
SfurOBP1; ligand concentration 16 (μM)
  Fluorescence competitive binding assay, fluorescence intensity: 34740 and 38687 and 36378
SfurOBP1; ligand concentration 18 (μM)
  Fluorescence competitive binding assay, fluorescence intensity: 40518 and 49298 and 40325
SfurOBP1; ligand concentration 20 (μM)
  Fluorescence competitive binding assay, fluorescence intensity: 47871 and 41141 and 44944
